Assay results taken from PubChem BioAssay AID328 (DTP/NCI, 2004).
Several values for one entry are separate records, joined by “and”; a condition that tells them apart may be missing. Equal values may be shown once. Inconclusive results and toxic doses are left out.

Test system: BDF1 mice, P388 leukemia ip, median survival T/C
Assay: NCI In Vivo Anticancer Drug Screen. Data for tumor model P388 Leukemia (intraperitoneal) in B6D2F1 (BDF1) mice
Conditions: endpoint: median survival time, higher = longer survival
In short: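 In tumour-bearing mice, survival after compound treatment is set against the vehicle group and given as a quotient.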

[1] = dose: 50.0 mg/kg/injection, schedule: Q01DX009 (ip), vehicle: saline
[2] = dose: 100.0 mg/kg/injection, schedule: Q01DX009 (ip), vehicle: saline
[3] = dose: 200.0 mg/kg/injection, schedule: Q01DX009 (ip), vehicle: saline
[4] = dose: 400.0 mg/kg/injection, schedule: Q01DX009 (ip), vehicle: saline
[5] = dose: 50.0 mg/kg/injection, schedule: Q01DX009 (ip), vehicle: saline with Tween-80
[6] = dose: 100.0 mg/kg/injection, schedule: Q01DX009 (ip), vehicle: saline with Tween-80
[7] = dose: 200.0 mg/kg/injection, schedule: Q01DX009 (ip), vehicle: saline with Tween-80
[8] = dose: 25.0 mg/kg/injection, schedule: Q01DX009 (ip), vehicle: saline
[9] = dose: 25.0 mg/kg/injection, schedule: Q04DX003 (ip), vehicle: saline
[10] = dose: 50.0 mg/kg/injection, schedule: Q04DX003 (ip), vehicle: saline
[11] = dose: 100.0 mg/kg/injection, schedule: Q04DX003 (ip), vehicle: saline
[12] = dose: 50.0 mg/kg/injection, schedule: Q01DX005 (ip), vehicle: saline with Tween-80
[13] = dose: 100.0 mg/kg/injection, schedule: Q01DX005 (ip), vehicle: saline with Tween-80
[14] = dose: 12.5 mg/kg/injection, schedule: Q01DX009 (ip), vehicle: saline with Tween-80
[15] = dose: 25.0 mg/kg/injection, schedule: Q01DX009 (ip), vehicle: saline with Tween-80

C=C[P+](c1ccccc1)(c1ccccc1)c1ccccc1
T/C (dose: 1.0 mg/kg/injection, schedule: Q01DX009 (ip), vehicle: saline): 110 % of control
T/C (dose: 1.5 mg/kg/injection, schedule: Q01DX010 (ip), vehicle: saline): 95 % of control
T/C (dose: 2.5 mg/kg/injection, schedule: Q01DX009 (ip), vehicle: saline): 150 % of control
T/C (dose: 3.0 mg/kg/injection, schedule: Q01DX010 (ip), vehicle: saline): 116 % of control
T/C (dose: 3.3 mg/kg/injection, schedule: Q04DX003 (ip), vehicle: saline): 120 % of control
T/C (dose: 3.7 mg/kg/injection, schedule: Q01DX009 (ip), vehicle: saline): 89 % of control
T/C (dose: 5.0 mg/kg/injection, schedule: Q01DX009 (ip), vehicle: saline): 95 % of control

OCc1cccnc1
T/C [1]: 93 % of control
T/C [2]: 100 % of control
T/C [3]: 100 % of control
T/C [4]: 108 % of control

C=CCc1cn(C2CC(O)C(CO)O2)c(=O)[nH]c1=O (stereo unspecified)
T/C [2]: 116 % of control
T/C [3]: 108 % of control
T/C [4]: 116 % of control

Nc1cc(=O)n(-c2ccccc2)[nH]1
T/C [5]: 105 % of control
T/C [6]: 102 % of control
T/C [7]: 109 % of control

COc1cc2ccc3cc[n+](C)cc3c2cc1OC
T/C [8]: 95 % of control
T/C [9]: 104 % of control
T/C [1]: 96 % of control and 100 % of control
T/C [10]: 95 % of control
T/C [2]: 86 % of control
T/C [11]: 95 % of control and 104 % of control
T/C (dose: 200.0 mg/kg/injection, schedule: Q04DX003 (ip), vehicle: saline): 90 % of control

NC(=S)N/N=C/c1ccc2c(c1)OCO2
T/C (dose: 50.0 mg/kg/injection, schedule: Q04DX003 (ip), vehicle: saline with Tween-80): 95 % of control
T/C (dose: 100.0 mg/kg/injection, schedule: Q04DX003 (ip), vehicle: saline with Tween-80): 100 % of control

CCC(/C=C/C(C)C1CCC2C3CC=C4CC(O)CCC4(C)C3CCC12C)C(C)C (stereo unspecified) (tested in a mixture with another compound)
T/C [8]: 104 % of control
T/C (dose: 25.0 mg/kg/injection, schedule: Q04DX003 (ip), vehicle: alcohol): 109 % of control
T/C [1]: 95 % of control
T/C (dose: 50.0 mg/kg/injection, schedule: Q04DX003 (ip), vehicle: alcohol): 95 % of control
T/C [2]: 100 % of control
T/C (dose: 100.0 mg/kg/injection, schedule: Q04DX003 (ip), vehicle: alcohol): 100 % of control

FC(F)(F)COP1SCCS1
T/C (dose: 25.0 mg/kg/injection, schedule: Q01DX005 (ip), vehicle: saline with Tween-80): 97 % of control
T/C [12]: 97 % of control

OC1(C2(O)c3ccccc3Oc3ccccc32)c2ccccc2Oc2ccccc21
T/C (dose: 50.0 mg/kg/injection, schedule: Q01DX001 (ip), vehicle: saline): 95 % of control
T/C (dose: 100.0 mg/kg/injection, schedule: Q01DX001 (ip), vehicle: saline): 90 % of control
T/C (dose: 200.0 mg/kg/injection, schedule: Q01DX001 (ip), vehicle: saline): 90 % of control

COC(=O)c1cc(=O)nc(NN=C(C)C)s1
T/C [12]: 91 % of control
T/C [13]: 100 % of control

Nc1ccc(C(=O)Nc2ccc(N(CCCl)CCCl)cc2)cc1
T/C (dose: 12.5 mg/kg/injection, schedule: Q01DX009 (ip), vehicle: saline): 108 % of control
T/C [9]: 152 % of control
T/C [1]: 173 % of control
T/C [10]: 216 % of control
T/C [2]: 170 % of control
T/C (dose: 150.0 mg/kg/injection, schedule: Q01DX009 (ip), vehicle: saline): 92 % of control

COc1ccc(-c2cc(C)n(C)[n+]2C)cc1
T/C [14]: 103 % of control
T/C [15]: 109 % of control

COc1ccc(-c2nnc(C)nc2-c2ccc(OC)cc2)cc1
T/C [12]: 96 % of control
T/C [13]: 106 % of control
T/C (dose: 200.0 mg/kg/injection, schedule: Q01DX005 (ip), vehicle: saline with Tween-80): 100 % of control

BrC1(Br)CC1(c1ccccc1)c1ccccc1
T/C (dose: 100.0 mg/kg/injection, schedule: Q01DX009 (ip), vehicle: Klucel (hydroxypropylcellulose) (HPC)): 110 % of control
T/C (dose: 200.0 mg/kg/injection, schedule: Q01DX009 (ip), vehicle: Klucel (hydroxypropylcellulose) (HPC)): 110 % of control
T/C (dose: 400.0 mg/kg/injection, schedule: Q01DX009 (ip), vehicle: Klucel (hydroxypropylcellulose) (HPC)): 105 % of control

O=[N+]([O-])c1ccc(/C=C/c2cc(N(CCO)CCO)c3ccccc3n2)cc1
T/C [5]: 94 % of control
T/C [6]: 99 % of control
T/C [7]: 100 % of control

CCCCOCN(COCCCC)c1ncccn1
T/C [5]: 108 % of control
T/C [6]: 106 % of control
T/C [7]: 104 % of control

[Cl][Co]([Cl])[Cl].[NH-]CC[N-]CC[NH-]
T/C [5]: 109 % of control
T/C [6]: 109 % of control

CCOC(=O)C12CC=CC(CCC1)/C2=N\Nc1ccccc1 (stereo unspecified)
T/C [6]: 90 % of control
T/C [7]: 90 % of control
T/C (dose: 400.0 mg/kg/injection, schedule: Q01DX009 (ip), vehicle: saline with Tween-80): 117 % of control

Clc1ccc(-c2nc3ncccn3n2)cc1
T/C [14]: 106 % of control
T/C [15]: 95 % of control
T/C [5]: 91 % of control and 95 % of control
T/C [7]: 101 % of control

CC1CCC2N(C1)CC1C(C(O)C(O)C3(O)C1CC14OC5(O)C(O)CCC1(C)C5CC(O)C34)C2(C)O (stereo unspecified)
T/C (dose: 25.0 mg/kg/injection, schedule: Q01DX010 (ip), vehicle: carboxymethylcellulose (CMC)): 100 % of control
T/C (dose: 50.0 mg/kg/injection, schedule: Q01DX010 (ip), vehicle: carboxymethylcellulose (CMC)): 115 % of control
T/C (dose: 100.0 mg/kg/injection, schedule: Q01DX010 (ip), vehicle: carboxymethylcellulose (CMC)): 110 % of control

CCOP(=O)(NCCCOC)OCC
T/C (dose: 3.5 mg/kg/injection, schedule: Q01DX009 (ip), vehicle: saline): 105 % of control
T/C (dose: 7.0 mg/kg/injection, schedule: Q01DX009 (ip), vehicle: saline): 120 % of control
T/C (dose: 9.0 mg/kg/injection, schedule: Q04DX003 (ip), vehicle: saline): 122 % of control
T/C (dose: 14.0 mg/kg/injection, schedule: Q01DX009 (ip), vehicle: saline): 115 % of control
T/C (dose: 14.0 mg/kg/injection, schedule: Q04DX003 (ip), vehicle: saline): 104 % of control
T/C (dose: 30.0 mg/kg/injection, schedule: Q01DX009 (ip), vehicle: saline): 88 % of control
T/C (dose: 45.0 mg/kg/injection, schedule: Q01DX009 (ip), vehicle: saline): 88 % of control

CSc1cccc(NC(=O)Nc2onc(C)c2C)c1
T/C (dose: 12.5 mg/kg/injection, schedule: Q01DX009 (ip), vehicle: Klucel (hydroxypropylcellulose) (HPC)): 101 % of control
T/C (dose: 25.0 mg/kg/injection, schedule: Q01DX009 (ip), vehicle: Klucel (hydroxypropylcellulose) (HPC)): 99 % of control
T/C (dose: 50.0 mg/kg/injection, schedule: Q01DX009 (ip), vehicle: Klucel (hydroxypropylcellulose) (HPC)): 101 % of control

Cc1ccc(C)c2c1[nH]c1c(C)c3ccncc3c(C)c12
T/C (dose: 25.0 mg/kg/injection, schedule: Q01DX001 (ip), vehicle: saline with Tween-80): 101 % of control
T/C (dose: 50.0 mg/kg/injection, schedule: Q01DX001 (ip), vehicle: saline with Tween-80): 91 % of control
T/C (dose: 100.0 mg/kg/injection, schedule: Q01DX001 (ip), vehicle: saline with Tween-80): 96 % of control

CC1(O)Cn2c(nc3nccnc32)S1 (stereo unspecified)
T/C [8]: 107 % of control
T/C [1]: 115 % of control
T/C [10]: 108 % of control
T/C [11]: 100 % of control

CCCCCCCCSC(=S)SCC(=O)O
T/C [5]: 100 % of control
T/C [6]: 100 % of control

Cc1ccc(NC(=O)N(CCCl)N=O)cc1NC(=O)N(CCCl)N=O
T/C (dose: 1.25 mg/kg/injection, schedule: Q04DX003 (ip), vehicle: other): 179 % of control
T/C (dose: 2.5 mg/kg/injection, schedule: Q04DX003 (ip), vehicle: other): 175 % of control
T/C (dose: 3.12 mg/kg/injection, schedule: Q01DX009 (ip), vehicle: other): 204 % of control
T/C (dose: 3.13 mg/kg/injection, schedule: Q01DX009 (ip), vehicle: saline with Tween-80): 185 % of control
T/C (dose: 5.0 mg/kg/injection, schedule: Q04DX003 (ip), vehicle: other): 200 % of control
T/C (dose: 6.25 mg/kg/injection, schedule: Q01DX009 (ip), vehicle: other): 207 % of control
T/C (dose: 6.25 mg/kg/injection, schedule: Q01DX009 (ip), vehicle: saline with Tween-80): 221 % of control
T/C (dose: 6.25 mg/kg/injection, schedule: Q04DX003 (ip), vehicle: other): 166 % of control
T/C [14]: 221 % of control
T/C [15]: 113 % of control
T/C (dose: 25.0 mg/kg/injection, schedule: Q04DX003 (ip), vehicle: other): 177 % of control
